# Reference: US20030022871A1, “Method for modulating tumor growth and metastasis of tumor cells” (priority 2002, published 2003)
# Legend:
# E12 [1] = biological target: T1, E12 (Homo sapiens, UniProt P15923); assay: Native polyacrylamide gel binding of tritiated tetracycline to protein; details: 10-30-fold molar excess of tritiated tetracycline, PBS, room temperature 30 minutes, 8% native gel autoradiogram
# T1 construct: expressed in transfected cells
# T1 sequence (P15923 1-654): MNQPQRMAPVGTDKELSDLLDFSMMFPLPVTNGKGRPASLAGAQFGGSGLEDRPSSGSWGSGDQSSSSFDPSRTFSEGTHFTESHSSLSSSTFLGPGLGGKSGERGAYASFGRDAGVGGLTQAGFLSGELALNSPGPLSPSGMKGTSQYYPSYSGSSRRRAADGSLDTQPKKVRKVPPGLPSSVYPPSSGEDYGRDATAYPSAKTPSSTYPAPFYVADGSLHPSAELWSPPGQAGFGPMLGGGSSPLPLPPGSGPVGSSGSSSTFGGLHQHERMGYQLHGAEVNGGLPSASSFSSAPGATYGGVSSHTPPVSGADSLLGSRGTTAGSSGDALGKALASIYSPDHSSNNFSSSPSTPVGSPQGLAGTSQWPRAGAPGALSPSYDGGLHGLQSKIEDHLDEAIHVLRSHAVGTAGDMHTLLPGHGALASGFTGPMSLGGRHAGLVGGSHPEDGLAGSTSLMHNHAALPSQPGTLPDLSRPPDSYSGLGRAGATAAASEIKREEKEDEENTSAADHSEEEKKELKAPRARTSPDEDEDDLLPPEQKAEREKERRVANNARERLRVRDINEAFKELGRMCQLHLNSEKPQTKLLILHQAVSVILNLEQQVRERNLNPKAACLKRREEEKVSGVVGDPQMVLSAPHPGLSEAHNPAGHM
# Description: (§1) Radiolabeled tetracycline (tritiated) was mixed with purified Id1 protein and other proteins separately to permit contact between the labeled tetracycline and the proteins. […] The complexes could then be visualized in an autoradiogram of the gel, e.g., exposure of the gel to x-ray film.
# (§2) In this experiment, a 10-30-fold molar excess of tritiated tetracycline was added to the indicated proteins separately in 10 Tl reaction tube containing one of the proteins and phosphate buffered saline at physiological pH. Proteins used in this experiment were:
# (§3) The mixtures were incubated at room temperature for 30 minutes. Bromophenol blue was added to each sample at 0.01% (v/v). The samples were then electrophoresed on an 8% native polyacrylamide gel.
# (§4) After electrophoresing the samples, the gel was dried and exposed to autoradiographic film for 12 hours to make an autoradiogram of the gel.
# E47 = biological target: T2, E47 (Homo sapiens, UniProt P15923); assay: as above; details: 10-30-fold molar excess of tritiated tetracycline, PBS, room temperature 30 minutes, 8% native gel autoradiogram
# T2 sequence (P15923 1-651 isoform P15923-2): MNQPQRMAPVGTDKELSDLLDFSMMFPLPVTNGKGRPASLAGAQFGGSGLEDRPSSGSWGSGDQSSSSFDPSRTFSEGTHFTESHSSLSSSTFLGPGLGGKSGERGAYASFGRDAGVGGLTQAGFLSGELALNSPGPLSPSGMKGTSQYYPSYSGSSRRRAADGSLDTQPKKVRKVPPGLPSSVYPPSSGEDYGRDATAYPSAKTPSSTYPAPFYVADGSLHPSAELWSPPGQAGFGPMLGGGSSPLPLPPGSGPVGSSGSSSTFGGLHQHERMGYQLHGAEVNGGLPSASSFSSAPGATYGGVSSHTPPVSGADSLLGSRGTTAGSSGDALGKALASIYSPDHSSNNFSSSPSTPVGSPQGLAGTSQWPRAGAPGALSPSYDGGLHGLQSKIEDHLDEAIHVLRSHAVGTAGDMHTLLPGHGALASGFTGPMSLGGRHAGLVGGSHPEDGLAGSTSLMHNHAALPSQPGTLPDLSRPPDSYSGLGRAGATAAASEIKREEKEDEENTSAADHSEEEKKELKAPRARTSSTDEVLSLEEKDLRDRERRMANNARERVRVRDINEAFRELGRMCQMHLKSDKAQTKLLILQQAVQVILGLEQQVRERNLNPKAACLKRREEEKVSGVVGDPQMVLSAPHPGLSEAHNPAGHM
# Description: as §1, §2, §3, §4
# [2] = tested on: Hsp90 (heat shock protein 90); assay: as above; details: 10-30-fold molar excess of tritiated tetracycline, PBS, room temperature 30 minutes, 8% native gel autoradiogram
# Description: as §1, §2, §3, §4
# [3] = tested on: Id old, an old preparation of Id in which the protein's conformation is perturbed; assay: as above; details: 10-30-fold molar excess of tritiated tetracycline, PBS, room temperature 30 minutes, 8% native gel autoradiogram
# Description: as §1, §2, §3, §4
# [4] = tested on: Id1 new, the normal protein (native Id1); assay: as above; details: 10-30-fold molar excess of tritiated tetracycline, PBS, room temperature 30 minutes, 8% native gel autoradiogram
# Description: as §1, §2, §3, §4
# MyoD = biological target: T3, MyoD (Homo sapiens, UniProt P15172); assay: as above; details: 10-30-fold molar excess of tritiated tetracycline, PBS, room temperature 30 minutes, 8% native gel autoradiogram
# T3 sequence (P15172 1-320): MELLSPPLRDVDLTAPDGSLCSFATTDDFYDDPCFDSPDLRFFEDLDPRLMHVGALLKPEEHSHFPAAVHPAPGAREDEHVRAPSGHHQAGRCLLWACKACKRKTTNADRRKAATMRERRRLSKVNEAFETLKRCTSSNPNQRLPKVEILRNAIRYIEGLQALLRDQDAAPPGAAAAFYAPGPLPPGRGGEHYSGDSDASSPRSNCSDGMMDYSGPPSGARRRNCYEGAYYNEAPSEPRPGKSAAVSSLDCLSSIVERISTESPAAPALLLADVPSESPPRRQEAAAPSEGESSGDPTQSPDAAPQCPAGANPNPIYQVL
# Description: as §1, §2, §3, §4
# Id1 [5] = biological target: T4, Id1 (Homo sapiens, UniProt P41134); assay: Gel shift: Id1 antagonism of E47 binding to radiolabeled DNA; format: biochemical
# T4 sequence (P41134 1-155): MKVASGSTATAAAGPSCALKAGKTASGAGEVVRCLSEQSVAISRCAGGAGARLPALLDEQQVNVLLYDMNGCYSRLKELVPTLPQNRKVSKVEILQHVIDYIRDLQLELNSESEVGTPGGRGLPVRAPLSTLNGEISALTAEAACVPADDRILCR
# Description: Purified Id1 and its target protein E12 are mixed to together in vitro, and the ability of Id1 to antagonize DNA binding capacity of E12 is measured. To measure E12 DNA binding activity, the mixtures were incubated with radiolabeled DNA sequences to which E12 binds and the protein/DNA complexes resolved on a native polyacrylamide gel as described [Benezra, 1994 #463].
# In this experiment, 50 nanograms of E47 protein (described in Example I) was present in reaction mixtures of 100, 200, and 400 nanograms of Id1, designated +, ++, and +++ respectively in FIG. 2. Tetracycline was added to the reactions as indicated (+) to about 200 Tg/ml final concentration. Radiolabeled DNA to which E47 binds was then introduced in each mixture. […] Each of the mixtures was permitted to incubate at room temperature for about 30 minutes. Then, the mixtures were electrophoresed in an 8% native polyacrylamide gel as described in Benezra, 1994.
# After electrophoresing the samples, the gel was dried and exposed to autoradiographic film to make an autoradiograph of the gel.
# Id1 [6] = biological target: T4, Id1; assay: 4R-TK-CAT reporter assay with E12 and Id1 plasmids in mammalian culture cells; format: cell-based
# Source text: (§5) Plasmids capable of expressing proteins when introduced into mammalian culture cells were used to test the activity of those proteins. In the assay depicted below, a plasmid that contains sequences to which the E12 protein binds upstream of a reporter gene (4R-TK-CAT) ix mixed with an E12 encoding plasmid and an Id plasmid to see if Id can inhibit the ability of E12 protein to bind and activate the reporter gene, in a similar to that described in Pesce, 1993 #163. If E12 binds to its sequence in the 4R-TK-CAT vector, it causes expression of the chloramphenical acetyltransferase (CAT) gene. The protein product of the CAT gene has an enzymatic activity that can be quantified. Uptake of the various plasmids was normalized to the expression of luciferase activity from a separate plasmid added in equal amounts to all cultures.
# E12 [7] = biological target: T1, E12; assay: 4R-TK-CAT reporter assay with E12 plasmid alone in mammalian culture cells; format: cell-based; details: E12 plasmid without Id1, tetracycline 100
# Source text: as §5
compound,measurement,setting,value
"CN(C)[C@@H]1C(O)=C(C(N)=O)C(=O)[C@@]2(O)C(O)=C3C(=O)c4c(O)cccc4[C@@](C)(O)[C@H]3C[C@@H]12 [tetracycline, [4S-(4I,5aI,5aI,6J,12aI)]-4-(Dimethylamino)-1,4,4a,5,5a,6-11,12a-octahydro-3,6, 10,12,12a-peiztaiydroxy-6-methyl-1,11-dioxo-2-naphthacenecarboxamide]",Binding of radiolabeled tetracycline to E12 (lane 2),E12 [1],did not bind
same,Binding of radiolabeled tetracycline to E47 (lane 6),E47,did not bind
same,Binding of radiolabeled tetracycline to Hsp90 (lane 1),[2],did not bind
same,Binding of radiolabeled tetracycline to old Id having a perturbed conformation (lane 3),[3],no radiolabeled tetracycline was detected
same,Binding of radiolabeled tetracycline to native Id1 (lane 4),[4],bound to native Id1
same,Binding of radiolabeled tetracycline to MyoD (lane 5),MyoD,did not bind
same,E47/DNA complex band intensity with tetracycline (lane 4) versus without (lane 3),"Id1 [5]; 50 nanograms E47, 100 nanograms Id1, tetracycline about 200 Tg/ml, same said for lanes 6 vs 5 and 8 vs 7 (200, 400 nanograms Id1)",much more intense
same,"Effect on Id activity, i.e. dimerizing with a protein member of the HLH super family, in vitro","Id1 [5]; tetracycline about 200 Tg/ml, 50 nanograms E47, 100-400 nanograms Id1",clearly inhibits Id activity
same,"Effect of tetracycline on Id1 inhibition of E12 (4R-TK-CAT reporter), Id1 high","Id1 [6]; Id1 10:1 molar excess over E12, tetracycline 100",no longer effective
same,"E12 binding activity (4R-TK-CAT reporter) in presence of tetracycline, Id1 (low)","Id1 [6]; Id1 plasmid at 3:1 molar excess of E12, tetracycline 100",partially restored
same,Effect of tetracycline on E12 activation of 4R-TK-CAT,E12 [7],not effected
